These are literature values, as cited in US20100255105A1, “EXTENDED RELEASE PHARMACEUTICAL COMPOSITION COMPRISING METOPROLOL SUCCINATE” (ZAKLADY FARMACEUTYCZNE POLPHARMA S.A., priority 2009, published 2010).

The conditions of this data set: water at 37° C.

With `COCCc1ccc(OCC(O)CNC(C)C)cc1` (stereo not shown) [metoprolol succinate], the solubility in water was 276 mg/mL.
